Activity calls are given as the source filed them. The rule behind the calls is not given here. Numbered stars: 1 amine (or outer) side, 2 acyl side, 3 side chain; on linkers, the order of the positions; unused ones are H or OH. Bridge positions count the residues as written; N and C are the ends. Square brackets hold non-standard residues; d marks the D form. Peptide text beside a SMILES is read from it. I, II: the chains in the order shown. ξ: configuration not given here. X1 = O=C(CCOCCOCCOCCOCCOCCOCCOCCOCCOCCn1cc(CCCC(=O)[*:2])nn1)[*:1]; ξK = NCCCCC(N)C(=O)O
Assays:
[1] = target: T1, Neuronal acetylcholine receptor subunit alpha-7 (Homo sapiens, UniProt P36544); experiment: Inhibition of human alpha7 nAChR expressed in Xenopus laevis oocytes assessed as inhibition of ACh-evoked currents by two-electrode voltage clamp assay; assay type: cell-based
[2] = target: Neuronal acetylcholine receptor subunit alpha-7 (Rattus norvegicus, UniProt Q05941); experiment: Inhibition of rat alpha7 nAChR
[3] = target: T2, Neuronal acetylcholine receptor; alpha9/alpha10 (Homo sapiens, UniProt Q9GZZ6+Q9UGM1); experiment: Inhibition of human alpha9alpha10 nAChR expressed in Xenopus laevis oocytes assessed as inhibition of ACh-evoked currents by two-electrode voltage clamp assay; assay type: cell-based
[4] = target: T3, Neuronal acetylcholine receptor; alpha9/alpha10 (Homo sapiens) (UniProt Q9UGM1+Q9GZZ6); experiment: Reversible inhibition of human alpha9alpha10 nAChR expressed in Xenopus laevis oocytes assessed as inhibition of ACh-evoked currents by two-electrode voltage clamp assay; assay type: cell-based
[5] = target: T1, Neuronal acetylcholine receptor subunit alpha-7; experiment: Reversible inhibition of human alpha7 nAChR expressed in Xenopus laevis oocytes assessed as inhibition of ACh-evoked currents by two-electrode voltage clamp assay; assay type: cell-based
[6] = target: T1, Neuronal acetylcholine receptor subunit alpha-7; experiment: Inhibition of human alpha7 nAChR expressed in Xenopus laevis oocytes assessed as inhibition of ACh-evoked currents at 1 uM by two-electrode voltage clamp assay relative to control; assay type: cell-based
[7] = target: T3, Neuronal acetylcholine receptor; alpha9/alpha10 (Homo sapiens); experiment: Inhibition of human alpha9alpha10 nAChR expressed in Xenopus laevis oocytes assessed as inhibition of ACh-evoked currents at 100 nM by two-electrode voltage clamp assay; assay type: cell-based
[8] = target: T4, Neuronal acetylcholine receptor; alpha3/beta2 (Homo sapiens) (UniProt P17787+P32297); experiment: Inhibition of human alpha3beta2 nAChR expressed in Xenopus laevis oocytes assessed as inhibition of ACh-evoked currents at 100 nM by two-electrode voltage clamp assay; assay type: cell-based
[9] = target: T5, Neuronal acetylcholine receptor; alpha3/beta4 (Homo sapiens) (UniProt P30926+P32297); experiment: Inhibition of human alpha3beta4 nAChR expressed in Xenopus laevis oocytes assessed as inhibition of ACh-evoked currents at 100 nM by two-electrode voltage clamp assay; assay type: cell-based
[10] = target: T3, Neuronal acetylcholine receptor; alpha9/alpha10 (Homo sapiens); experiment: Inhibition of human alpha9alpha10 nAChR expressed in Xenopus laevis oocytes assessed as inhibition of ACh-evoked currents at 1 uM by two-electrode voltage clamp assay; assay type: cell-based
[11] = target: T6, Neuronal acetylcholine receptor; alpha4/beta2 (Homo sapiens) (UniProt P17787+P43681); experiment: Inhibition of human alpha4beta2 nAChR expressed in Xenopus laevis oocytes assessed as inhibition of ACh-evoked currents at 100 nM by two-electrode voltage clamp assay; assay type: cell-based
[12] = target: T2, Neuronal acetylcholine receptor; alpha9/alpha10; experiment: Inhibition of human alpha9alpha10 nAChR expressed in Xenopus laevis oocytes expressing alpha9:alpha10 mRNA injection ratio of 1:3 assessed as inhibition of ACh-evoked currents by two-electrode voltage clamp assay; assay type: cell-based
[13] = target: T5, Neuronal acetylcholine receptor; alpha3/beta4 (Homo sapiens); experiment: Inhibition of human alpha3beta4 nAChR expressed in Xenopus laevis oocytes assessed as inhibition of ACh-evoked currents at 1 uM by two-electrode voltage clamp assay; assay type: cell-based
[14] = target: T4, Neuronal acetylcholine receptor; alpha3/beta2 (Homo sapiens); experiment: Inhibition of human alpha3beta2 nAChR expressed in Xenopus laevis oocytes assessed as inhibition of ACh-evoked currents at 1 uM by two-electrode voltage clamp assay relative to control; assay type: cell-based
[15] = target: T6, Neuronal acetylcholine receptor; alpha4/beta2 (Homo sapiens); experiment: Inhibition of human alpha4beta2 nAChR expressed in Xenopus laevis oocytes assessed as inhibition of ACh-evoked currents at 1 uM by two-electrode voltage clamp assay; assay type: cell-based

T1 sequence (P36544 whole entry): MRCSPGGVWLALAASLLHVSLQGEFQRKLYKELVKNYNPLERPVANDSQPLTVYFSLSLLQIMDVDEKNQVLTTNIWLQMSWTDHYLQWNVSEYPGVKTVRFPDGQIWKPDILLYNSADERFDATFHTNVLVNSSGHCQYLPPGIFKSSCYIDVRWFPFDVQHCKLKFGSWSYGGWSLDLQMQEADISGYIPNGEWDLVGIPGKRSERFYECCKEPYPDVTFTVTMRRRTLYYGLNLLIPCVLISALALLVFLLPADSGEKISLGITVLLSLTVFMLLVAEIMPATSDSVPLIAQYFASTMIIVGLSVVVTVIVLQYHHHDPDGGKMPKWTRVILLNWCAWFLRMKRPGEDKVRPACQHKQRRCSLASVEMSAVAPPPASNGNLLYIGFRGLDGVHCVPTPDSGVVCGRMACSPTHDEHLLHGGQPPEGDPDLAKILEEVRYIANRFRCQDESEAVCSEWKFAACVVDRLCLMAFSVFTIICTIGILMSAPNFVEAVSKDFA
T2 sequence (Q9UGM1 whole entry): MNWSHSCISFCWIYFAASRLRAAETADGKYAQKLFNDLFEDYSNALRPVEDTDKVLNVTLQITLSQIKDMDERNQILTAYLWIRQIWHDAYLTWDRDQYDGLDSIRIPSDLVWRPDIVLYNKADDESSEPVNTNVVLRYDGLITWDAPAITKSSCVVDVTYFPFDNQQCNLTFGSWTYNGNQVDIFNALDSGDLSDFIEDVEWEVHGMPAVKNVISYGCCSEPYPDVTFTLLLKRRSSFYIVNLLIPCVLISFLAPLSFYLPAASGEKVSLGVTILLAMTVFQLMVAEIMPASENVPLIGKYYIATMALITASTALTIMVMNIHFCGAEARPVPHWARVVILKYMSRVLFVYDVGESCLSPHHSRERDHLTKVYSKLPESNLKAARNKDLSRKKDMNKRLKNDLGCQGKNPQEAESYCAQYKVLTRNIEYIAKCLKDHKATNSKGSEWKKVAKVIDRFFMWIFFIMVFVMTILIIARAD
T2 sequence (Q9GZZ6 whole entry): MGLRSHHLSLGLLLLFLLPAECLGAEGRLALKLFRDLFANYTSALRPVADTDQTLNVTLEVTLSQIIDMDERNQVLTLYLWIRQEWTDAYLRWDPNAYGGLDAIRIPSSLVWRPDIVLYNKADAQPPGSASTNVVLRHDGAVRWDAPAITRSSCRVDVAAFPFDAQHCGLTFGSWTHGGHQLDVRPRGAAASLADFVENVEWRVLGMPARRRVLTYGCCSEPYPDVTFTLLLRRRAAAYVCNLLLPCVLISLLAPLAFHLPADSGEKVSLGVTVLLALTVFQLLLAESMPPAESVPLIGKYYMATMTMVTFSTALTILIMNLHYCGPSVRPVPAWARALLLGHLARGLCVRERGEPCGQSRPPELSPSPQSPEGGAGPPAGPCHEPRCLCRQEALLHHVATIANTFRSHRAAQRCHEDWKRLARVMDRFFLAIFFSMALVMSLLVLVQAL
Sequence of Neuronal acetylcholine receptor subunit alpha-7 (Rattus norvegicus, UniProt Q05941) (Q05941 whole entry): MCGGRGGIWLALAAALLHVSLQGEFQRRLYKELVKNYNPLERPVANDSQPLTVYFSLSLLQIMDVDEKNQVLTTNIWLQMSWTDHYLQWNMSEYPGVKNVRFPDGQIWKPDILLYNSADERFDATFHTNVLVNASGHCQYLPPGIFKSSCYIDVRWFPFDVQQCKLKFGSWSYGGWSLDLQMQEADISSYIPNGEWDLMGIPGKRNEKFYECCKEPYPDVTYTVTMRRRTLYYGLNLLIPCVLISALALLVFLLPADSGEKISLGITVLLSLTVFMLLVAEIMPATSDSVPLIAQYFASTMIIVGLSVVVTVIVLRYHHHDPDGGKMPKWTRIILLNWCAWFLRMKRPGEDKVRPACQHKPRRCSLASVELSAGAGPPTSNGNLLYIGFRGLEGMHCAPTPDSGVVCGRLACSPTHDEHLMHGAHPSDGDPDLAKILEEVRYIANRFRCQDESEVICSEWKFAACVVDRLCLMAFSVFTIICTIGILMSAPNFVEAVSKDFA

Row | Compound | IC50 [1] | IC50 [3] | inhibition [4] | inhibition [5] | also measured
1 | CC(C)C[C@@H]1NC(=O)[C@H](CCC(=O)O)NC(=O)[C@@H]2CCCN2C(=O)[C@H](Cc2cnc[nH]2)NC(=O)[C@H](CC(N)=O)NC(=O)[C@H](C(C)C)NC(=O)[C@H](CO)NC(=O)[C@@H]2CSSC[C@H](NC(=O)CN)C(=O)N[C@@H](CSSC[C@@H](C(N)=O)NC1=O)C(=O)N[C@@H](CO)C(=O)N[C@@H](Cc1cnc[nH]1)C(=O)N1CCC[C@H]1C(=O)N[C@@H](C)C(=O)N2 (H-GCCSHPACSVNHPELC-NH2; disulfide 2-8, 3-16) | > 10000 nM | – | – | – | –
2 | N=C(N)NCCC[C@H](NC(=O)[C@@H]1CSSC[C@@H]2NC(=O)[C@@H](NC(=O)CN)CSSC[C@H](NC(=O)[C@H](CCCNC(=N)N)NC(=O)[C@@H]3CCCN3C(=O)[C@H](CC(=O)O)NC(=O)[C@H](CO)NC2=O)C(=O)N[C@@H](CCCNC(=N)N)C(=O)N[C@@H](Cc2ccc(O)cc2)C(=O)N[C@@H](CCCNC(=N)N)C(=O)N1)C(=O)O | – | – | – | – | IC50 [2]: 4660 nM
3 | CC[C@H](C)[C@@H]1NC(=O)[C@H](CCC(=O)O)NC(=O)[C@@H]2CCCN2C(=O)[C@H](Cc2cnc[nH]2)NC(=O)[C@H](CC(=O)O)NC(=O)[C@H](Cc2ccc(O)cc2)NC(=O)[C@H](CC(N)=O)NC(=O)[C@@H]2CSSC[C@H](NC(=O)CN)C(=O)N[C@@H](CSSC[C@@H](C(N)=O)NC1=O)C(=O)N[C@@H](CO)C(=O)N[C@@H](CC(=O)O)C(=O)N1CCC[C@H]1C(=O)N[C@@H](CCCNC(=N)N)C(=O)N2 | > 10000 nM | 1000 nM | – | – | –
4 | CC[C@H](C)[C@@H]1NC(=O)[C@H](CCC(=O)O)NC(=O)[C@@H]2CCCN2C(=O)[C@H](Cc2cnc[nH]2)NC(=O)[C@H](CC(=O)O)NC(=O)[C@H](Cc2ccc(O)cc2)NC(=O)[C@H](CC(N)=O)NC(=O)[C@@H]2CSSC[C@H](NC(=O)CNC(=O)CCOCCOCCOCCOCCOCCOCCOCCOCCOCCn3cc(CCCC(=O)NCCCCC(NC(=O)CCCc4cn(CCOCCOCCOCCOCCOCCOCCOCCOCCOCCC(=O)NCC(=O)N[C@H]5CSSC[C@@H]6NC(=O)[C@H](CCCNC(=N)N)NC(=O)[C@@H]7CCCN7C(=O)[C@H](CC(=O)O)NC(=O)[C@H](CO)NC(=O)[C@H](CSSC[C@@H](C(N)=O)NC(=O)[C@H]([C@@H](C)CC)NC(=O)[C@H](CCC(=O)O)NC(=O)[C@@H]7CCCN7C(=O)[C@H](Cc7cnc[nH]7)NC(=O)[C@H](CC(=O)O)NC(=O)[C@H](Cc7ccc(O)cc7)NC(=O)[C@H](CC(N)=O)NC6=O)NC5=O)nn4)C(=O)NCC(=O)N[C@@H](CCCNC(=N)N)C(=O)N[C@@H](CCCNC(=N)N)C(=O)N[C@@H](CCCNC(=N)N)C(=O)N[C@@H](CCCNC(=N)N)C(=O)NCC(N)=O)nn3)C(=O)N[C@@H](CSSC[C@@H](C(N)=O)NC1=O)C(=O)N[C@@H](CO)C(=O)N[C@@H](CC(=O)O)C(=O)N1CCC[C@H]1C(=O)N[C@@H](CCCNC(=N)N)C(=O)N2 (some centres undefined) | > 10000 nM | 266 nM | Dose-dependent effect | Dose-dependent effect | –
5 | N=C(N)NCCC[C@@H]1NC(=O)[C@H](Cc2ccc(O)cc2)NC(=O)[C@H](CCCNC(=N)N)NC(=O)[C@@H]2CSSC[C@H](NC(=O)CN)C(=O)N[C@@H](CSSC[C@@H](C(N)=O)NC1=O)C(=O)N[C@@H](CO)C(=O)N[C@@H](CC(=O)O)C(=O)N1CCC[C@H]1C(=O)N[C@@H](CCCNC(=N)N)C(=O)N2 (H-GCCSDPRCRYRC-NH2; disulfide 2-8, 3-12) | > 1000 nM | 249 nM | – | – | inhibition [6]: 20%
6 | N=C(N)NCCC[C@H](NC(=O)CNC(=O)C(CCCCNC(=O)CCCc1cn(CCOCCOCCOCCOCCOCCOCCOCCOCCOCCC(=O)NCC(=O)N[C@H]2CSSC[C@@H]3NC(=O)[C@H](CCCNC(=N)N)NC(=O)[C@@H]4CCCN4C(=O)[C@H](CC(=O)O)NC(=O)[C@H](CO)NC(=O)[C@H](CSSC[C@@H](C(N)=O)NC(=O)[C@H](CCCNC(=N)N)NC(=O)[C@H](Cc4ccc(O)cc4)NC(=O)[C@H](CCCNC(=N)N)NC3=O)NC2=O)nn1)NC(=O)CCCc1cn(CCOCCOCCOCCOCCOCCOCCOCCOCCOCCC(=O)NCC(=O)N[C@H]2CSSC[C@@H]3NC(=O)[C@H](CCCNC(=N)N)NC(=O)[C@@H]4CCCN4C(=O)[C@H](CC(=O)O)NC(=O)[C@H](CO)NC(=O)[C@H](CSSC[C@@H](C(N)=O)NC(=O)[C@H](CCCNC(=N)N)NC(=O)[C@H](Cc4ccc(O)cc4)NC(=O)[C@H](CCCNC(=N)N)NC3=O)NC2=O)nn1)C(=O)N[C@@H](CCCNC(=N)N)C(=O)N[C@@H](CCCNC(=N)N)C(=O)N[C@@H](CCCNC(=N)N)C(=O)NCC(N)=O (some centres undefined) (I: GCCSDPRCRYRC-NH2 / II: GCCSDPRCRYRC-NH2 / III: [ξK]GRRRRG-NH2; disulfide I:2-I:8, I:3-I:12, II:2-II:8, II:3-II:12; linker I:N-III:1, II:N-III:N via X1) | 63.1 nM | 38.5 nM | Dose-dependent effect | Dose-dependent effect | inhibition [7]: Active; inhibition [8]: Active; inhibition [9]: inactive; inhibition [10]: Active; inhibition [11]: inactive; IC50 [12]: 117 nM; inhibition [13]: inactive; inhibition [14]: 60%; inhibition [15]: inactive
7 | C[C@@H]1NC(=O)[C@@H]2CSSC[C@H](NC(=O)CN)C(=O)N[C@@H](CSSC[C@@H](C(N)=O)NC(=O)[C@H](CCCNC(=N)N)NC(=O)[C@H](Cc3c[nH]c4ccccc34)NC1=O)C(=O)N[C@@H](CO)C(=O)N[C@@H](CC(=O)O)C(=O)N1CCC[C@H]1C(=O)N[C@@H](CCCNC(=N)N)C(=O)N2 | 1000 nM | – | – | – | –
8 | CC(C)C[C@@H]1NC(=O)[C@H](CCC(=O)O)NC(=O)[C@@H]2CCCN2C(=O)[C@H](Cc2cnc[nH]2)NC(=O)[C@H](CC(N)=O)NC(=O)[C@H](C(C)C)NC(=O)[C@H](CO)NC(=O)[C@@H]2CSSC[C@H](NC(=O)CNC(=O)CCOCCOCCOCCOCCOCCOCCOCCOCCOCCn3cc(CCCC(=O)NCCCCC(NC(=O)CCCc4cn(CCOCCOCCOCCOCCOCCOCCOCCOCCOCCC(=O)NCC(=O)N[C@H]5CSSC[C@@H]6NC(=O)[C@H](C)NC(=O)[C@@H]7CCCN7C(=O)[C@H](Cc7cnc[nH]7)NC(=O)[C@H](CO)NC(=O)[C@H](CSSC[C@@H](C(N)=O)NC(=O)[C@H](CC(C)C)NC(=O)[C@H](CCC(=O)O)NC(=O)[C@@H]7CCCN7C(=O)[C@H](Cc7cnc[nH]7)NC(=O)[C@H](CC(N)=O)NC(=O)[C@H](C(C)C)NC(=O)[C@H](CO)NC6=O)NC5=O)nn4)C(=O)NCC(=O)N[C@@H](CCCNC(=N)N)C(=O)N[C@@H](CCCNC(=N)N)C(=O)N[C@@H](CCCNC(=N)N)C(=O)N[C@@H](CCCNC(=N)N)C(=O)NCC(N)=O)nn3)C(=O)N[C@@H](CSSC[C@@H](C(N)=O)NC1=O)C(=O)N[C@@H](CO)C(=O)N[C@@H](Cc1cnc[nH]1)C(=O)N1CCC[C@H]1C(=O)N[C@@H](C)C(=O)N2 (some centres undefined) (I: GCCSHPACSVNHPELC-NH2 / II: GCCSHPACSVNHPELC-NH2 / III: [ξK]GRRRRG-NH2; disulfide I:2-I:8, I:3-I:16, II:2-II:8, II:3-II:16; linker I:N-III:1, II:N-III:N via X1) | 354 nM | 1.9 nM | Dose-dependent effect | Dose-dependent effect | –

— ChEMBL document CHEMBL4354859, “Dimerization of α-Conotoxins as a Strategy to Enhance the Inhibition of the Human α7 and α9α10 Nicotinic Acetylcholine Receptors” (J Med Chem, 2020)
